Measurements from patent US4731109A, “Herbicidal 2-haloacetanilides” (Monsanto Company, priority 1982, dated 1988).

Assays:
rape = assay: Greenhouse pre-emergence GR15/GR85 selectivity test; type: in vivo; details: Table VI
Description: (§1) A good grade of top soil is placed in aluminum pans and compacted to a depth of three-eighths to one-half inch from the top of the pan. On the top of the soil is placed a number of seeds or vegetative propagules of various plant species. The soil required to level fill the pans after seeding or adding vegetative propagules is weighed into a pan. The soil and a known amount of the active ingredient applied in a solvent or as a wettable powder suspension are thoroughly mixed, and used to cover the prepared pans. After treatment, the pans are given an initial overhead irrigation of eater, equivalent to one-fourth inch (0.64 cm) rainfall, then watered by subirrigation as need to give adequate moisture for germination and growth. As an alternative procedure, the overhead irrigation may be omitted. Observations are made about 2-3 weeks after seeding and treatment.
(§2) In the discussion and tables of data below, reference is made to herbicide application rates symbolized as "GR15 " and "GR85 "; these rates are given in kilograms per hectare (kg/ha) which are convertible into pounds per acre (lbs/A) by dividing the kg/ha rate by 1.12.
(§3) A further guide to the effectiveness of a chemical as a selective herbicide is the "selectivity factor" ("SF") for a herbicide in given crops and weeds. The selectivity factor is a measure of the relative degree of crop safety and weed injury and is expressed in terms of the GR15 /GR85 ratio, i.e., the GR15 rate for the crop divided by the GR85 rate for the weed, both rates in kg/ha (lb/A). In the tables below, selectivity factors are shown in parenthesis following the GR85 rate for each weed; the symbol "NS" indicates "non-selective". Marginal or undetermined selectivity is indicated by a dash (--).
(§4) Additionally, pre-emergence herbicidal data from other tests have established that compounds according to this invention also selectively suppress quackgrass, yellow nutsedge and/or other weeds in one or more of the crops cotton, peanuts, bush beans and/or rape. For example, in Table VI are presented data showing the herbicidal selectivity of the compounds of Examples 1 and 2 against quackgrass in rape and snap beans. Unless otherwise noted; greenhouse tests in Table VI and in other tables below involved herbicide treatments by soil incorporation and an initial overhead irrigation followed by subirrigation as described above.
In another greenhouse test, the compounds of Examples 3-5, 9 and 10 were tested for their herbicidal efficacy against a variety of resistant annual and perennial weeds in rape.

shattercane = assay: as above; type: in vivo; details: Table XIV
Description: as §1, with “After treatment, the pans are given an initial overhead irrigation of eater, equivalent to one-fourth inch (0.64 cm) rainfall, then watered by subirrigation as need to give adequate moisture for germination and growth.” left out
as §3
(§5) Unless otherwise noted; greenhouse tests in Table VI and in other tables below involved herbicide treatments by soil incorporation and an initial overhead irrigation followed by subirrigation as described above.

itchgrass = assay: as above; type: in vivo; details: Table XIV
Description: as §1, with “After treatment, the pans are given an initial overhead irrigation of eater, equivalent to one-fourth inch (0.64 cm) rainfall, then watered by subirrigation as need to give adequate moisture for germination and growth.” left out
as §3, §5

alexandergrass = assay: as above; type: in vivo; details: Table XIV
Description: as §1, with “After treatment, the pans are given an initial overhead irrigation of eater, equivalent to one-fourth inch (0.64 cm) rainfall, then watered by subirrigation as need to give adequate moisture for germination and growth.” left out
as §3, §5

Texas panicum = assay: as above; type: in vivo; details: Table XIV
Description: as §1, with “After treatment, the pans are given an initial overhead irrigation of eater, equivalent to one-fourth inch (0.64 cm) rainfall, then watered by subirrigation as need to give adequate moisture for germination and growth.” left out
as §3, §5

fall panicum = assay: as above; type: in vivo; details: Table XIV
Description: as §1, with “After treatment, the pans are given an initial overhead irrigation of eater, equivalent to one-fourth inch (0.64 cm) rainfall, then watered by subirrigation as need to give adequate moisture for germination and growth.” left out
as §3, §5

red rice = assay: as above; type: in vivo; details: Table XIV
Description: as §1, with “After treatment, the pans are given an initial overhead irrigation of eater, equivalent to one-fourth inch (0.64 cm) rainfall, then watered by subirrigation as need to give adequate moisture for germination and growth.” left out
as §3, §5

seedling johnsongrass = assay: as above; type: in vivo; details: Table XIV
Description: as §1, with “After treatment, the pans are given an initial overhead irrigation of eater, equivalent to one-fourth inch (0.64 cm) rainfall, then watered by subirrigation as need to give adequate moisture for germination and growth.” left out
as §3, §5

soybeans = assay: Herbicidal effect in a variety of soil types; type: in vivo; details: Table XVII A
wild proso millet = assay: Greenhouse pre-emergence GR15/GR85 selectivity test; type: in vivo, wild proso millet (panicum milicaeum); details: Table XIV
Description: as §1, with “After treatment, the pans are given an initial overhead irrigation of eater, equivalent to one-fourth inch (0.64 cm) rainfall, then watered by subirrigation as need to give adequate moisture for germination and growth.” left out
as §3, §5

Yellow Nutsedge = assay: as above; type: in vivo; details: Table IV
Description: as §1, with “After treatment, the pans are given an initial overhead irrigation of eater, equivalent to one-fourth inch (0.64 cm) rainfall, then watered by subirrigation as need to give adequate moisture for germination and growth.” left out
as §3
(§6) These weeds are commonly associated with such major crops as corn and soybeans. […] The test procedure was the same as described for Tables II and III but modified by the application of an initial overhead irrigation equivalent to 1/4" (0.64 cm) rainfall; subsequent watering was accomplished by subirrigation. "NS" means non-selective within the test limits.
as §5

Quackgrass [1] = assay: as above; type: in vivo
Description: as §1, with “After treatment, the pans are given an initial overhead irrigation of eater, equivalent to one-fourth inch (0.64 cm) rainfall, then watered by subirrigation as need to give adequate moisture for germination and growth.” left out
as §3, §6, §5

corn = assay: as above; type: in vivo; details: Table IV
Description: as §1, §2, §3
In Table IV pre-emergence herbicidal activity data are presented comparing the relative efficacy of the invention compounds and said prior art compounds as selective herbicides against the resistant and troublesome perennial weeds quackgrass and yellow nutsedge in soybeans and corn, respectively. These weeds are commonly associated with such major crops as corn and soybeans. The test data in Table IV were obtained under identical procedural conditions and represent two replicate runs (except for the compound of Example 9 which was present in one comparative test). The test procedure was the same as described for Tables II and III but modified by the application of an initial overhead irrigation equivalent to 1/4" (0.64 cm) rainfall; subsequent watering was accomplished by subirrigation. "NS" means non-selective within the test limits.
as §4

Quackgrass [2] = assay: Herbicidal effect in a variety of soil types; type: in vivo; details: Table XVII A; for selectivity factor (GR15/GR85): in soybeans
Description: The herbicide treatments were by soil incorporation with seeds planted 0.375 in (0.95 cm) deep, with 0.25 in (0.64 cm overhead irrigation. Observations were made about three weeks after treatment. Selectivity factors are shown in parenthesis.

In the case of `CC(C)OCN(C(=O)CCl)c1ccccc1C(F)(F)F` [Example 2, N--(isopropoxymethyl)-2'-trifluoromethyl-2-chloroacetanilide], the “GR15 Rate” value (rape) is reported as 1.9 Kg/Ha, the “GR85 Rate” value (shattercane) is reported as 0.93 Kg/Ha and the “selectivity factor (GR15/GR85)” value (shattercane; in soybeans) is reported as greater than 1.12. The “GR85 Rate” value (itchgrass) was greater than 1.1 Kg/Ha, the “GR85 Rate” value (alexandergrass) was greater than 1.1 Kg/Ha and the “GR85 Rate” value (Texas panicum) was greater than 1.12 Kg/Ha. For the same molecule, the “GR85 Rate” value (fall panicum) was less than 0.07 Kg/Ha, the “selectivity factor (GR15/GR85)” value (fall panicum; in soybeans) was greater than 16 and the “GR85 Rate” value (red rice) was 0.14 Kg/Ha. For the same molecule, the “selectivity factor (GR15/GR85)” value (red rice; in soybeans) was greater than 8.0, the “GR85 Rate” value (seedling johnsongrass) was 0.28 Kg/Ha and the “selectivity factor (GR15/GR85)” value (seedling johnsongrass; in soybeans) was greater than 4.0. The GR15 (soybeans; Drummer silty clay) was greater than 2.2 Kg/Ha, the GR15 (soybeans; Florida muck) was greater than 2.2 Kg/Ha and the GR15 (soybeans; Florida sand) was 1.7 Kg/Ha. The GR15 (soybeans; Ray silt loam) was 2.2 Kg/Ha, the GR15 (soybeans; Sarpy silty clay) was greater than 2.2 Kg/Ha and the “GR85 Rate” value (wild proso millet) was 1.1 Kg/Ha. The “selectivity factor (GR15/GR85)” value (wild proso millet; in soybeans) was greater than 1.0, the GR85 (Yellow Nutsedge; Replicate #1) was 0.17 Kg/Ha and the GR85 (Yellow Nutsedge; Replicate #2) was 0.20 Kg/Ha. For the same molecule, the “selectivity factor (GR15/GR85)” value (Yellow Nutsedge; yellow nutsedge in corn, Replicate #1) was 18, the “selectivity factor (GR15/GR85)” value (Yellow Nutsedge; yellow nutsedge in corn, Replicate #2) was 4 and the “selectivity factor (GR15/GR85)” value (Yellow Nutsedge; yellow nutsedge in soybeans, Replicate #1) was 10. The “selectivity factor (GR15/GR85)” value (Yellow Nutsedge; yellow nutsedge in soybeans, Replicate #2) was 8.5, the GR85 (Quackgrass [1]; Table IV, Replicate #1) was 0.26 Kg/Ha and the GR85 (Quackgrass [1]; Table IV, Replicate #2) was 0.22 Kg/Ha. For the same molecule, the “GR85 Rate” value (Quackgrass [1]; Table VI) was 0.28 Kg/Ha, the “selectivity factor (GR15/GR85)” value (Quackgrass [1]; quackgrass in corn, Table IV, Replicate #1) was 12 and the “selectivity factor (GR15/GR85)” value (Quackgrass [1]; quackgrass in corn, Table IV, Replicate #2) was 3.5. For the same molecule, the “selectivity factor (GR15/GR85)” value (Quackgrass [1]; quackgrass in rape, Table VI) was 7, the “selectivity factor (GR15/GR85)” value (Quackgrass [1]; quackgrass in snapbeans, Table VI) was 8 and the “selectivity factor (GR15/GR85)” value (Quackgrass [1]; quackgrass in soybeans, Table IV, Replicate #1) was 6.5. The “selectivity factor (GR15/GR85)” value (Quackgrass [1]; quackgrass in soybeans, Table IV, Replicate #2) was 7.5, the GR15 (corn; Replicate #1) was 3.1 Kg/Ha and the GR15 (corn; Replicate #2) was 0.78 Kg/Ha. It also gave a GR85 (Quackgrass [2]; Drummer silty clay) of 0.56 Kg/Ha, a GR85 (Quackgrass [2]; Florida muck) of 0.95 Kg/Ha and a GR85 (Quackgrass [2]; Florida sand) of 0.22 Kg/Ha. The GR85 (Quackgrass [2]; Ray silt loam) was 0.28 Kg/Ha, the GR85 (Quackgrass [2]; Sarpy silty clay) was 0.43 Kg/Ha and the GR85 (Quackgrass [2]; Wabash silty clay) was 0.34 Kg/Ha. For the same molecule, the “selectivity factor (GR15/GR85)” value (Quackgrass [2]; Drummer silty clay) was greater than 4, the “selectivity factor (GR15/GR85)” value (Quackgrass [2]; Florida muck) was greater than 2 and the “selectivity factor (GR15/GR85)” value (Quackgrass [2]; Florida sand) was 7.5. For the same molecule, the “selectivity factor (GR15/GR85)” value (Quackgrass [2]; Ray silt loam) was 8 and the “selectivity factor (GR15/GR85)” value (Quackgrass [2]; Sarpy silty clay) was greater than 5.
